{
  "source": "patent US20240180950A1",
  "about": "“Prevention and Treatment of Post-Infection Neurological Disorders and Clotting/Thrombotic Disorders” (priority 2021, published 2024)",
  "origin": "cited, not measured here",
  "details": "250 mg, 500 mg, 1000 mg, 2000 mg, and 4000 mg per day, per person, in 2 or 3 divided doses",
  "data": [
    {"smiles": "Nc1nc2c(ncn2[C@@H]2O[C@H](COP(=O)(O)O)[C@@H](O)[C@H]2O)c(=O)[nH]1", "note": "[guanosine monophosphate]", "values": [
      {"measurement": "safety of daily human doses of guanosine monophosphate", "result": "safe"}
    ]}
  ]
}
